# Key:
# [1] = Liver tissue distribution after single intragastric administration; details: for Mean drug concentration (liver) / Mean drug concentration (plasma) / AUC(0-t) at 24 h: 10 mg/kg single intragastric, ICR mice; for AUC(0-t) at 24 h: in vivo, area under curve at 24 h post-dose
# Method: The specific regimen was as follows: Before administration, the state of the formulation for administration was inspected, and the homogeneity of the formulation was ensured by vortexing, stirring, or shaking. The theoretical dose for each mouse was calculated according to the following formula. The actual dose for each ICR mouse and the collection time for plasma and tissue samples were required to be recorded in detail in corresponding tables. Theoretical administration volume (mL) = ((Dose(mg⋅kg^−1))/(Concentration of test solution (mg⋅((mL))^−1))) × Animal body weight (kg) [formula]
# Plasma sample collection: At each designated time point, about 100 µL of blood was collected from the orbit, and the collected whole blood was placed in an EDTA-K2 anticoagulation tube, inverted several times to mix thoroughly, stored on wet ice, and centrifuged (at 1500 g to 1600 g) for 10 min within 30 min to separate the plasma. The resulting plasma sample was stored at -40 °C to -20 °C for biological sample analysis.
# The specific procedures for liver tissue collection were as follows: Liver tissues were collected immediately after whole blood collection. The liver tissues were collected, washed with ice-cold normal saline, dehydrated, weighed, and homogenized in 20% methanol-water at a ratio of 1:5 (w/v). The collection time of tissues and the weight of homogenized tissues were required to be recorded in detail in corresponding tables.
# The plasma and various tissue homogenates were stored in a refrigerator at -40 °C to -20 °C for sample analysis. After the experiment was completed, the mice were euthanized by carbon dioxide asphyxiation or cervical dislocation. After the analysis was completed, the samples were returned to the biological sample room, and transferred to an environment at -40 °C to -20 °C for storage according to SOP-SM-001.
# The corresponding pharmacokinetic parameters of plasma and liver tissues were calculated using a non-compartmental model in Phoenix WinNonlin 8.0 or later versions, and the area under curve AUC0-t (AUC0-t, the area under the concentration-time curve at 24 h post-dose) was calculated. The liver/plasma drug distribution ratio (RL/P) was then calculated.
# [2] = tested on: IFN-α, IP-10, IL-6, and TNF-α; experiment: Liver safety: cytokine ELISA in liver tissue; assay type: in vivo, C57BL/6J wild-type female mice; details: 1 h, 2 h, 4 h
# Method: (§1) C57BL/6J wild-type female mice (6 weeks old) were randomly grouped. After administration at different doses, whole blood and liver tissues of the mice were separately collected at 1 h, 2 h, and 4 h for detection of a plurality of parameters to evaluate the effect of the drugs on the liver.
# (§2) Liver tissues and blood were collected at 1 h, 2 h, and 4 h after single dosing.
# (§3) The supernatant was collected and stored (-20 °C); • (3) IFN-α, IP-10, IL-6, and TNF-α were detected using an ELISA kit. • (C) Remaining liver tissue-HE staining and pathological evaluation. • (D) 1/2 blood (whole blood)-liver function parameter detection: AST (aspartate aminotransferase), ALT (alanine aminotransferase/glutamate pyruvate transaminase), ALP (alkaline phosphatase), ALB (albumin), and GGT (γ-glutamyl transferase). • (E) 1/2 blood-serum preparation-reserve for ELISA.
# [3] = tested on: ISG15, ISG56, Mx1, and Oaslb; experiment: Liver safety: qPCR of interferon-related genes in liver tissue; assay type: in vivo, C57BL/6J wild-type female mice; details: dose of 3 mpk (pharmacodynamic dose)
# Method: as §1, §2, §3
# [4] = assay type: in vivo, C57BL/6J wild-type female mice
# Method: as §1, §2, §3
# [5] = tested on: Hep3B-luc; experiment: Hep3B-luc liver orthotopic xenograft mouse model; details: Hep3B-luc liver orthotopic tumor model, 3 mg/kg
# [6] = biological target: hERG potassium channel (Homo sapiens, UniProt Q12809); experiment: hERG whole-cell patch-clamp; assay type: cell-based
# Source text: The rapidly activated potassium channel encoded by human ether-a-go-go-related gene (hERG) is an important ion channel involved in the formation of cardiac action potential phase 3 repolarization. Drug-induced blockade of hERG channels can lead to delayed cardiac repolarization, manifested as QT interval prolongation on the electrocardiogram, known as long QT syndrome. Drug-induced delayed ventricular repolarization may, under certain circumstances, trigger fatal arrhythmias-torsade de pointes-type ventricular tachycardia. In this study, the whole-cell patch-clamp technique (the standard method for hERG safety assessment) was employed to evaluate the inhibitory effects of the small-molecule compounds on the hERG potassium channel and to assess the risk of ventricular repolarization toxicity.
# [7] = in vivo
# Method: C57BL/6 mice, 8 weeks old, female/male, 27, supplier: SPF (Beijing) Biotechnology Co., Ltd.
# The body weight of the animals was measured and recorded daily.
# All groups were subjected to clinical observations before administration and 1 to 2 h after administration, and additional observations were performed if necessary. Deaths and mortality were checked twice daily. The observations should include, but are not limited to, the following: fur condition, activity, mental status, vomiting, diarrhea, and abnormal secretions around the eyes. All animals should be observed on the day of necropsy, and any abnormal findings should be recorded.
# The rectal temperature of all animals was measured and recorded at 0 h before administration and at 2 h, 4 h, 8 h and 24 h after administration.
# The experiment was terminated on day 7 after administration. A gross necropsy was performed to examine abdominal and thoracic organs for lesions, and the spleen and liver were collected for weighing.
# [8] = tested on: H22-luc; details: H22-luc orthotopic model, 3 mpk, IG
# Method: The cells were placed in an incubator at 37 °C with 5% CO2 and passaged every 1 to 2 days depending on the cell density.
# The cell concentration (H22-luc, 2.0E8/mL) was adjusted, and the cells were mixed well with Matrigel at a ratio of 1:1. The mixture was placed on ice for subsequent injection experiments, and was mixed thoroughly by shaking with Vortex before use.
# • (1) The mice were weighed before surgery and anesthetized by intraperitoneal injection of avertin at 0.15 mL/10 g body weight. […] The needle was inserted into the liver at a 30-degree angle relative to the liver surface. After the needle was inserted, the needle was made parallel to the tabletop and advanced in parallel for about 3 mm. 10 µL of H22-luc cell suspension was slowly injected, and a rapid whitening (white plaque) or turbid translucent vacuolation over most of the liver lobe in the injection area was observed. • (5) After injection, a cotton swab was used to apply slight pressure at the needle insertion site while the needle was slowly withdrawn. The cotton swab was removed until no bleeding was observed. • (6) The liver lobe was gently pushed back into the abdominal cavity, and the muscle layer and skin were sutured.
# The experimental data were analyzed using Graphpad Prism 8. The experimental data were expressed as mean ± SD.
# [9] = in vitro; details: human, microsomes, pH 7.4
# Method: The metabolic stability of the compounds in in vitro liver microsomes was evaluated. The procedures and steps were as follows: At 37 °C, 1 µM of the compounds was incubated in 1 mg/mL liver microsomes. The reaction system was a 0.1 M potassium phosphate buffer (pH 7.4) containing 3 mmol/L MgCl2 and 1 mmol/L NADPH. At the beginning of the reaction, the small molecules and the liver microsomes were pre-incubated at 37 °C for 10 min, and subsequently a cofactor NADPH was added to initiate the metabolic reaction. The reaction was quenched at 0 min, 5 min, 10 min, 20 min, 30 min, and 60 min using three volumes of ice-cold methanol containing an internal standard (200 nM labetalol). After incubation at room temperature for 10 min, the samples were centrifuged at 4000 rpm at 4 °C for 20 min, and the supernatants were collected, diluted with chromatography-grade purified water in a 1:1 ratio, and then subjected to quantitative analysis. […] After a 6-minute chromatographic separation on a C18 column (50 × 2.1 mm; 2.6 µm) under a gradient mobile phase of 0.1% formic acid in water, the peaks corresponding to specified ionic signals were detected. […] The detailed operation process was as follows: • 1) The compound working solution was added to all 96-well reaction plates (T0, T5, T10, T20, T30, and T60) at 10 µL/well, except the blank wells. • 2) The microsomal solution was added to all the reaction wells (T0, T5, T10, T20, T30, T60, and blank wells) at 80 µL/well. • 3) The plates were pre-incubated at 37 °C for 10 min. • 4) After pre-incubation, NADPH was added to each reaction plate at 10 µL/well to initiate the reaction. • 5) At the set end time point, a 4 °C methanol solution (containing an internal standard: 200 nM labetalol) was added to each reaction plate at 300 µL/well to quench the reaction. • 6) Each plate was sealed and shaken for 10 min. • 7) The mixture was shaken well and centrifuged at 4000 rpm at 4 °C for 20 min. • 8) 300 µL of the supernatant was collected, and HPLC-grade water was added at 300 µL/well. The mixture was well mixed and then subjected to LC-MS analysis.
# The metabolic half-life (T1/2) and the metabolic clearance rate (CLint(mic)) (µL/min/mg) were calculated using a first-order kinetic equation.
# [10] = tested on: hepatitis B virus (HBV); experiment: Anti-hepatitis B virus activity in HBV-infected primary human hepatocytes; assay type: cell-based, HBV type B; details: HBV-infected PHHs, agonist-treated PBMC supernatant (donor 1) or reference compound
# Method: The culture supernatant from one donor (donor 1) was selected to stimulate HBV-infected primary hepatocytes (PHHs), and interferon α and nucleoside analog entecavir (ETV) were selected as positive controls. The experimental procedures were as follows (FIG. 14a), and the detailed procedures were as follows: On day -1, cryopreserved PHHs were thawed and adjusted to a density of 6 × 10^5 cells/mL, and the PHHs were seeded into a 48-well plate at 0.22 mL/well.
# On day 0, the PHHs were infected with HBV type B at 600 GE/cells.
# On day 1, the culture medium was replaced with a fresh one, and reference compounds ETV and Peg-IFN-α2a (Pegasys-Roche) were added to the cells to treat the cells. The reference compounds ETV and Peg-IFN-α2a for the PHHs were each prepared at one concentration, with three replicate wells.
# The PBMC supernatants were each prepared at 4 test concentrations, diluted at a ratio of 1:4, and then added to the cells. Three replicate wells were made for each test condition. The culture medium was replaced with a fresh culture medium containing the PBMC supernatants and the reference compounds on days 5, 7, 9, and 11. On day 13, the cell supernatants were collected and the cell viability was detected using CCK-8.
# The content of HBV DNA in the supernatants was determined by qPCR according to the kit instructions. HBsAg and HBeAg levels in the supernatants were determined by ELISA.
# [11] = tested on: Peripheral blood mononuclear cells (hPBMCs); experiment: Cytokine secretion after stimulation of PBMCs; details: hPBMCs from 3 donors, 24 h of stimulation
# [12] = tested on: advanced unresectable HCC; details: cited from earlier work
# [13] = tested on: advanced hepatocellular carcinoma (aHCC); details: first-line aHCC; nivolumab 240 mg intravenous drip once every 2 weeks; sorafenib 400 mg oral twice daily; cited from earlier work
# [14] = C57BL/6 mice, single intragastric administration
# [15] = ICR, mouse, liver, oral, 10 mg/kg
# [16] = ICR, mouse, liver/plasma, oral, 10 mg/kg
# [17] = ICR, mouse, plasma, oral, 10 mg/kg
# Sequence of hERG potassium channel (Q12809 whole entry): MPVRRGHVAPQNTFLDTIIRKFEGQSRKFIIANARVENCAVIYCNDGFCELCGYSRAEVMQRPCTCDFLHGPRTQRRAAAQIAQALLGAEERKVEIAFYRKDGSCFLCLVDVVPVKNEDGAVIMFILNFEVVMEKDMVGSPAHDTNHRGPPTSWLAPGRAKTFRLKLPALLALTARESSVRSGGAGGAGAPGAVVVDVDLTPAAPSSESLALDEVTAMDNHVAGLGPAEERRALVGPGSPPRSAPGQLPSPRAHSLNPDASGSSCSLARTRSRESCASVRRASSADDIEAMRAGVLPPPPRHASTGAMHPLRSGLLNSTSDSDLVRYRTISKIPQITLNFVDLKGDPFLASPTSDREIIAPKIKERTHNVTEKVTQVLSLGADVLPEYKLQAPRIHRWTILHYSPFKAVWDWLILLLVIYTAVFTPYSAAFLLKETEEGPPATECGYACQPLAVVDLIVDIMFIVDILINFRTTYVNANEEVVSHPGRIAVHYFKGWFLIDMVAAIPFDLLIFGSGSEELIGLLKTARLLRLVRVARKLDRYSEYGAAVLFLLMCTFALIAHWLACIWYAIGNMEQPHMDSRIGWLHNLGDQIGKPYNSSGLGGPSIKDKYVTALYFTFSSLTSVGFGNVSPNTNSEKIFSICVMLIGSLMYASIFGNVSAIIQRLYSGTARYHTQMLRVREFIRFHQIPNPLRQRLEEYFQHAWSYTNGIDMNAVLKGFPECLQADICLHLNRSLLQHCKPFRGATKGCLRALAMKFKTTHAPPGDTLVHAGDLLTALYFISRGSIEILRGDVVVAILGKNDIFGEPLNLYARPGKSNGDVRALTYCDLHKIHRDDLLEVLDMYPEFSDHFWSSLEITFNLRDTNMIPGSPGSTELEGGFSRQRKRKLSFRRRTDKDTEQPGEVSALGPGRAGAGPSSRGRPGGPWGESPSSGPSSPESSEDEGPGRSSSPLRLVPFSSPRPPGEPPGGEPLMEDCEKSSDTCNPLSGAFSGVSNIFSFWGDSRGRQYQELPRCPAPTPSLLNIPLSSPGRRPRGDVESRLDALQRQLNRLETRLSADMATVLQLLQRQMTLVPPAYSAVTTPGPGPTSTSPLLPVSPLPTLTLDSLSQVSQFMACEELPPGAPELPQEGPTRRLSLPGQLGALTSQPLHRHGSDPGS
structure (smiles),measurement,setting,value
COCCNc1nc(N)nc2ccc(Cc3ccc(CN(C)C)cc3)nc12 [Compound I],Mean drug concentration (liver),[1]; 0.25h,3416 ng/g
same,Mean drug concentration (plasma),[1]; 0.25h,45.4 ng/mL
same,Mean drug concentration (liver),[1]; 1 h,2340 ng/g
same,Mean drug concentration (plasma),[1]; 1 h,25.9 ng/mL
same,Mean drug concentration (liver),[1]; 4h,263 ng/g
same,Mean drug concentration (plasma),[1]; 4h,10.7 ng/mL
same,Mean drug concentration (liver),[1]; 24h,35.6 ng/g
same,Mean drug concentration (plasma),[1]; 24h,1.49 ng/mL
same,AUC(0-t) at 24 h,"[1]; mouse, po, 10 mg/kg, AUC0-t (liver)",9480 ng·h/mL
same,AUC(0-t) at 24 h,"[1]; mouse, po, 10 mg/kg, AUC0-t (plasma)",206 ng·h/mL
same,expression level of IP-10,[2]; 3 mpk i.g. single dose,"increased first, then decreased, and then increased from 1 h to 4 h"
same,"expression levels of IL-6, TNF-α, and IFN-α",[2]; 3 mpk i.g. single dose,decreased from 1 h to 4 h
same,expression level of IP-10,[2]; 10 mpk i.g. single dose,peaked at 2 h and decreased at 4 h
same,"expression levels of IL-6, TNF-α, and IFN-α",[2]; 10 mpk i.g. single dose,increased from 1 h to 4 h
same,"expression levels of IL-6, TNF-α, IFN-α, and IP-10",[2]; 20 mpk i.g. single dose,"peaked at 2 h, and decreased at 4 h"
same,mRNA expression level of interferon-related genes,[3],significantly induced an increase
same,ALB level,[4]; 10 mpk group at 2 h,significantly lower than that of the control group
same,AST levels,"[4]; all administration groups, no statistically significant differences",exceeded the normal reference range
same,ALP levels,[4]; all dose groups,within the normal reference value range
same,GGT levels,[4]; all dose groups,within the normal reference value range
same,ALT elevation by clinical adverse reaction grading,"[4]; single administration, Grade 1 AE = ALT exceeding three times the normal value",did not result in ALT elevation to grade 1 AE
same,ALT,"[4]; whole blood, 3/10/20 mpk i.g. single dose, 1 h, 2 h, 4 h",increased in all groups
same,maximum body weight loss,[5],8.0%
same,IC50,[6],17.2 µM
same,Gross necropsy,"[7]; 10 mg/kg, group 1, male animal No. 46",enlarged spleen
same,Cage-side observation,"[7]; 10 mg/kg, group 1, male animal No. 46, day 2",mild hunched posture
same,Gross necropsy,"[7]; 40 mg/kg, group 4, female animal No. 2",enlarged spleen
same,rectal temperature,"[7]; 2 h after treatment, significant difference vs vehicle group, returned to normal 4 h, 8 h and 24 h",decreased
same,Adverse reactions at maximum tolerated dose/probability,[7]; [14],No
same,Weight loss at maximum tolerated dose: whether recovered,[7]; [14],Yes
same,Weight loss rate at maximum tolerated dose,[7]; [14],12.5%
same,With or without mouse death,[7]; [14],No
same,spleen weight,"[7]; female animals, 30 mg/kg, compared with vehicle group",significantly increased
same,body weight,"[7]; male and female animals, 10-40 mg/kg single administration, began to recover from day 3 to day 7",decreased after the single administration
same,MTD at 168 h,"[7]; mouse, in vivo, po",40 mg/kg
same,mouse death,[8]; QW × 3,One mouse in the compound I group died from ascites on day 20
same,TGI,"[8]; QW × 3, BLI 21 days post-dose, P < 0.0001",87.0%
same,half-life at 1 µM,[9],1.7 h
same,microsomal CLint at 1 µM,[9],13.7 µL/min/mg
"C=C1[C@H](CO)[C@@H](O)C[C@@H]1n1cnc2c(=O)[nH]c(N)nc21 [ETV, entecavir, reference compound]",levels of surface antigens HBeAg and HBsAg,[10]; supernatant ELISA day 13,did not reduce
same,level of HBV DNA,[10]; supernatant qPCR day 13,significantly inhibited
"CCCC[C@](C)(CO)Nc1nc(N)nc2cc(F)cnc12 [GS-9688, reference compound]",Mean drug concentration (liver),[1]; 24h,BLOQ
same,Mean drug concentration (plasma),[1]; 24h,BLOQ
same,concentration at 0.25 h,[1]; [15],907 ng/g
same,concentration at 1 h,[1]; [15],224 ng/g
same,concentration at 4 h,[1]; [15],207 ng/g
same,AUC(0-t),"[1]; ICR, mouse, liver, po, 10 mg/kg",1180 ng·h/mL
same,Kp,[1]; [16],3.5
same,Kp at 0.25 h,[1]; [16],2.49
same,Kp at 1 h,[1]; [16],3.16
same,Kp at 4 h,[1]; [16],15
same,Kp,"[1]; ICR, mouse, liver/plasma, po, 10 mg/kg",3.5
same,concentration at 0.25 h,[1]; [17],364 ng/mL
same,concentration at 1 h,[1]; [17],70.9 ng/mL
same,concentration at 4 h,[1]; [17],13.8 ng/mL
same,AUC(0-t),"[1]; ICR, mouse, plasma, po, 10 mg/kg",336 ng·h/mL
same,IFN-α stimulating activity,[11],essentially failed to activate IFN-α
CNC(=O)c1cc(Oc2ccc(NC(=O)Nc3ccc(Cl)c(C(F)(F)F)c3)cc2)ccn1 [sorafenib],median survival,"[12]; patients with advanced unresectable HCC (N = 602), placebo 7.9 months",10.7 months
same,progression-free survival,[12]; placebo 84 days,167 days
same,ORR,[13],7%
same,mOS,[13],14.7 months
